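The compound was tested at five concentrations on cells cultured in 96-well plates, with a 48-hour exposure period. GI50 marks 50% less growth.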 Activity calls are given as the source filed them. Rule as the data show it: active = GI50 up to about 1.1 µM and inactive = higher.
Key:
Assay in all cases: NCI-60 cell line screen, 48 h
OVCAR-3 = tested on: OVCAR-3
UACC-257 = tested on: UACC-257
NCI-H23 = tested on: NCI-H23
LOX IMVI = tested on: LOX IMVI
SNB-19 = tested on: SNB-19
HCC 2998 = tested on: HCC 2998
Malme-3M = tested on: Malme-3M
MOLT-4 = tested on: MOLT-4
SK-MEL-2 = tested on: SK-MEL-2
HOP-62 = tested on: HOP-62
CCRF-CEM = tested on: CCRF-CEM
OVCAR-8 = tested on: OVCAR-8
M14 = tested on: M14
SK-MEL-5 = tested on: SK-MEL-5
NCI-H522 = tested on: NCI-H522
CAKI-1 = tested on: CAKI-1
KM12 = tested on: KM12
RPMI-8226 = tested on: RPMI-8226

SMILES | GI50 (OVCAR-3) | GI50 (UACC-257) | GI50 (NCI-H23) | GI50 (LOX IMVI) | GI50 (SNB-19) | GI50 (HCC 2998) | GI50 (Malme-3M) | GI50 (MOLT-4) | GI50 (SK-MEL-2) | GI50 (HOP-62) | GI50 (CCRF-CEM) | GI50 (OVCAR-8) | GI50 (M14) | GI50 (SK-MEL-5) | GI50 (NCI-H522) | GI50 (CAKI-1) | GI50 (KM12) | GI50 (RPMI-8226)
C=C(C)C1CC=C(C(=O)O)CC1 (stereo not drawn) | 877 µM (inactive) | 1190 µM (inactive) | 968 µM (inactive) | 1220 µM (inactive) | 1190 µM (inactive) | 1080 µM (inactive) | 809 µM (inactive) | 2330 µM (inactive) | 1170 µM (inactive) | 995 µM (inactive) | 863 µM (inactive) | 1200 µM (inactive) | 1750 µM (inactive) | 752 µM (inactive) | 887 µM (inactive) | 1300 µM (inactive) | 859 µM (inactive) | –
O=C(Nc1ccccc1)n1cc(-c2ccccn2)c(N2CCOCC2)n1 | 2.12 µM (inactive) | 17.7 µM (inactive) | – | 5.75 µM (inactive) | 9.57 µM (inactive) | 21.7 µM (inactive) | 2.54 µM (inactive) | 4.15 µM (inactive) | – | 6.59 µM (inactive) | 5.48 µM (inactive) | 46 µM (inactive) | 8.91 µM (inactive) | 6.04 µM (inactive) | 2.56 µM (inactive) | 13 µM (inactive) | 1.79 µM (inactive) | 4.27 µM (inactive)
N#CC(c1ccc(Cl)cc1)c1cccc(Cl)n1 (stereo not drawn) | 34 µM (inactive) | 60.7 µM (inactive) | 43.3 µM (inactive) | – | > 100 µM (inactive) | 61 µM (inactive) | 74.5 µM (inactive) | 55.8 µM (inactive) | 54.8 µM (inactive) | 91 µM (inactive) | > 100 µM (inactive) | > 100 µM (inactive) | 79.8 µM (inactive) | – | 22.4 µM (inactive) | 25.3 µM (inactive) | 78.3 µM (inactive) | 51.1 µM (inactive)
COc1ccccc1/N=N/c1c(-c2ccccc2)nn(C(=O)CC(=O)Nc2cccc(C)c2)c1-c1ccccc1 | 16 µM (inactive) | 27.3 µM (inactive) | 24.1 µM (inactive) | 27.5 µM (inactive) | 27.2 µM (inactive) | 42 µM (inactive) | 45.6 µM (inactive) | 10.7 µM (inactive) | – | 19.1 µM (inactive) | 15.2 µM (inactive) | 31.2 µM (inactive) | 14.7 µM (inactive) | 18.7 µM (inactive) | 16.4 µM (inactive) | 23.3 µM (inactive) | 26.1 µM (inactive) | –
COc1ccc([C@@H]2OC(=O)C3C2C(=O)O[C@H]3c2ccc(OC)cc2)cc1 (stereo partly drawn) | > 100 µM (inactive) | > 100 µM (inactive) | > 100 µM (inactive) | – | > 100 µM (inactive) | > 100 µM (inactive) | – | > 100 µM (inactive) | > 100 µM (inactive) | > 100 µM (inactive) | > 100 µM (inactive) | > 100 µM (inactive) | – | – | – | > 100 µM (inactive) | > 100 µM (inactive) | > 100 µM (inactive)
O=C1C2=C(CCCCC2)C2CCCCC12O (stereo not drawn) | > 100 µM (inactive) | > 100 µM (inactive) | > 100 µM (inactive) | > 100 µM (inactive) | > 100 µM (inactive) | > 100 µM (inactive) | > 100 µM (inactive) | > 100 µM (inactive) | > 100 µM (inactive) | > 100 µM (inactive) | > 100 µM (inactive) | > 100 µM (inactive) | > 100 µM (inactive) | – | > 100 µM (inactive) | – | > 100 µM (inactive) | > 100 µM (inactive)
Cc1ccc(Sc2ccc(C)cc2[N+](=O)[O-])c([N+](=O)[O-])c1 | > 100 µM (inactive) | > 10 µM (inactive) | > 100 µM (inactive) | > 100 µM (inactive) | > 100 µM (inactive) | > 100 µM (inactive) | > 100 µM (inactive) | > 100 µM (inactive) | > 100 µM (inactive) | > 100 µM (inactive) | > 100 µM (inactive) | > 100 µM (inactive) | > 100 µM (inactive) | > 100 µM (inactive) | > 100 µM (inactive) | > 10 µM (inactive) | > 100 µM (inactive) | > 100 µM (inactive)
CN1C/C(=C\c2ccccc2)C2=NN(C(N)=S)[C@H](c3ccccc3)[C@@H]2C1 | > 100 µM (inactive) | 59.2 µM (inactive) | 56.4 µM (inactive) | > 100 µM (inactive) | > 100 µM (inactive) | > 100 µM (inactive) | 36.6 µM (inactive) | 89.1 µM (inactive) | > 100 µM (inactive) | > 100 µM (inactive) | 45.6 µM (inactive) | – | 95.1 µM (inactive) | – | 40 µM (inactive) | – | 54 µM (inactive) | 0.276 µM (active)
CCOC(=O)[C-]([N+]#N)[Si](C)(C)C | > 100 µM (inactive) | 59.3 µM (inactive) | 75.5 µM (inactive) | 85.9 µM (inactive) | > 100 µM (inactive) | > 100 µM (inactive) | > 100 µM (inactive) | – | > 100 µM (inactive) | 20.5 µM (inactive) | – | > 100 µM (inactive) | – | > 100 µM (inactive) | – | > 100 µM (inactive) | > 100 µM (inactive) | –
O=C(O)CNc1c2ccccc2nc2ccccc12 | 80.4 µM (inactive) | > 100 µM (inactive) | > 100 µM (inactive) | > 100 µM (inactive) | > 100 µM (inactive) | > 100 µM (inactive) | > 100 µM (inactive) | > 100 µM (inactive) | > 100 µM (inactive) | – | > 100 µM (inactive) | > 100 µM (inactive) | > 100 µM (inactive) | > 100 µM (inactive) | 49.8 µM (inactive) | > 100 µM (inactive) | > 100 µM (inactive) | 56.8 µM (inactive)
c1ccc(COCC2OC3c4ccccc4COC3C2OCc2ccccc2)cc1 (stereo not drawn) | > 100 µM (inactive) | 61.2 µM (inactive) | 94.8 µM (inactive) | – | > 100 µM (inactive) | > 100 µM (inactive) | > 100 µM (inactive) | 48.8 µM (inactive) | > 100 µM (inactive) | – | – | > 100 µM (inactive) | > 100 µM (inactive) | 70.6 µM (inactive) | – | 76.9 µM (inactive) | > 100 µM (inactive) | 63 µM (inactive)
Cc1cc(=O)n(-c2ccccc2)c(=O)o1 | > 100 µM (inactive) | > 100 µM (inactive) | > 100 µM (inactive) | 32.8 µM (inactive) | > 100 µM (inactive) | > 100 µM (inactive) | > 100 µM (inactive) | > 100 µM (inactive) | > 100 µM (inactive) | > 100 µM (inactive) | > 100 µM (inactive) | – | > 100 µM (inactive) | > 100 µM (inactive) | 62.7 µM (inactive) | > 100 µM (inactive) | > 100 µM (inactive) | > 100 µM (inactive)
COC(=O)C1=C(C(=O)OC)C2C(C)=CC(C)=CN2C(C#N)=C(SC)S1 (stereo not drawn) | 28.4 µM (inactive) | 24.3 µM (inactive) | 17.7 µM (inactive) | 17.9 µM (inactive) | 52.4 µM (inactive) | 37.2 µM (inactive) | 24.7 µM (inactive) | 23.6 µM (inactive) | 23.1 µM (inactive) | 51.8 µM (inactive) | 17.4 µM (inactive) | 22.4 µM (inactive) | 18 µM (inactive) | 14.6 µM (inactive) | 16.1 µM (inactive) | 20.3 µM (inactive) | – | 21.6 µM (inactive)
N#CC1(C=O)c2ccccc2C=CN1C(=O)c1ccccc1 (stereo not drawn) | 16.7 µM (inactive) | 29.8 µM (inactive) | 41.7 µM (inactive) | – | 58.3 µM (inactive) | 35.8 µM (inactive) | 30.6 µM (inactive) | 18.7 µM (inactive) | 61.8 µM (inactive) | – | 17.6 µM (inactive) | 41.8 µM (inactive) | 26.8 µM (inactive) | 11.4 µM (inactive) | 27.9 µM (inactive) | 20.5 µM (inactive) | 19.2 µM (inactive) | –
COC(=O)C(=O)C(C(=O)C(=O)Nc1ccc(C)cc1C)c1nc2ccccc2nc1O (stereo not drawn) | 32.7 µM (inactive) | 58.7 µM (inactive) | 66.8 µM (inactive) | 47 µM (inactive) | > 100 µM (inactive) | 67.3 µM (inactive) | 57.4 µM (inactive) | 32.4 µM (inactive) | 54.3 µM (inactive) | 39.4 µM (inactive) | 4.99 µM (inactive) | 37.7 µM (inactive) | 54.8 µM (inactive) | 58.1 µM (inactive) | 25 µM (inactive) | 21.3 µM (inactive) | 64.3 µM (inactive) | 35 µM (inactive)
Cc1c(Cl)ccc2[s+]snc12 | 51.3 µM (inactive) | 30.3 µM (inactive) | 52.5 µM (inactive) | 23.7 µM (inactive) | 73.3 µM (inactive) | 88.3 µM (inactive) | 49.8 µM (inactive) | 26.7 µM (inactive) | 29.2 µM (inactive) | 51.6 µM (inactive) | 23.2 µM (inactive) | 21.6 µM (inactive) | 24.5 µM (inactive) | 21 µM (inactive) | 19.6 µM (inactive) | 37.9 µM (inactive) | 43.1 µM (inactive) | –
Cc1ccc(-c2cc(O)c3cc4c(cc3n2)OCO4)cc1 | 0.929 µM (active) | > 100 µM (inactive) | 0.916 µM (active) | 2.67 µM (inactive) | 3.12 µM (inactive) | 1.42 µM (inactive) | 0.52 µM (active) | 2.72 µM (inactive) | 1.72 µM (inactive) | 2.25 µM (inactive) | 1.05 µM (active) | 3.2 µM (inactive) | 0.817 µM (active) | 0.35 µM (active) | 1.63 µM (inactive) | 3.52 µM (inactive) | 0.836 µM (active) | 2.13 µM (inactive)

From ChEMBL document CHEMBL1201862, “PubChem BioAssay data set” (2004)
